Measured values published in patent publication US20140235536A1, “INJECTABLE SOLUTION AT PH 7 COMPRISING AT LEAST ONE BASAL INSULIN THE ISOELECTRIC POINT OF WHICH IS COMPRISED IN 5.8 AND 8.5 AND AN ANIONIC COMPOUND BEARING CARBOXYLATE CHARGES AND HYDROPHOBIC RADICALS” (ADOCIA, priority 2013, published 2014).
Read-outs that look alike come from different tables or passages of the source.

What was measured:
[1] = target: insulin glargine and prandial insulin (Homo sapiens, UniProt P01308, INS54RR/N110G)
Description: 0.25 ml of the insulin glulisine solution of example B3 is added to 0.75 ml of the solution of hydrophobized anionic molecule AA1/insulin glargine prepared according to the protocol described in example B6(a), so as to form 1 ml of a composition at pH 7. […] This clear solution is filtered through a 0.22 μm filter and then placed at +4° C.
0.25 ml of the insulin lispro solution of example B2 is added to 0.75 ml of the solution of hydrophobized anionic molecule AA1/insulin glargine prepared according to the protocol described in example B6(a), so as to form 1 ml of a composition at pH 7. […] This clear solution is filtered through a 0.22 μm filter and then placed at +4° C.
0.25 ml of the insulin aspart solution of example B1 is added to 0.75 ml of the solution of hydrophobized anionic molecule AA1/insulin glargine prepared in example B6(a), so as to form 1 ml of a composition at pH 7. […] This clear solution is filtered through a 0.22 μm filter and then placed at +4° C.
0.4 ml of the insulin lispro solution of example B2 is added to 0.6 ml of the solution of hydrophobized anionic molecule AA1/insulin glargine prepared in example 86(a), so as to form 1 ml of a composition at pH 7. […] This clear solution is filtered through a 0.22 μm filter and then placed at +4° C.
0.6 ml of the insulin lispro solution of example B2 is added to 0.4 ml of the solution of hydrophobized anionic molecule AA1/insulin glargine prepared in example B6(a), so as to form 1 ml of a composition at pH 7. […] This clear solution is filtered through a 0.22 μm filter and then placed at +4° C.
Compositions are prepared by mixing 0.75 ml of the hydrophobized anionic molecule AA1/insulin glargine solution prepared according to the protocol of example B6(a) with 0.25 ml of a prandial insulin, so as to form 1 ml of hydrophobized anionic molecule AA1/insulin glargine/prandial insulin composition (containing 7.5 mg/ml of hydrophobized anionic molecule AA1, 75 IU/ml of insulin glargine and 25 IU/ml of prandial insulin).

insulin glargine [2] = target: T1, insulin glargine (Homo sapiens, UniProt P01308, INS54RR/N110G); test: Precipitation of hydrophobized anionic molecule/insulin glargine/prandial insulin compositions in PBS/BSA (examples B15-B17); assay type: physicochemical
T1 construct: substitution of asparagine residue A21 with a glycine residue; elongation of the C-terminal of the B chain of human insulin with two arginine residues; purchased SANOFI-AVENTIS (Lantus®); ELI LILLY (Humalog®)
Description: The PBS/BSA mixture simulates the composition of the subcutaneous medium.
(§1) Centrifugation at 4000 rpm is carried out in order to separate the precipitate from the supernatant. The insulin glargine is then assayed in the supernatant by RP-HPLC.
This composition is added to 2 ml of PBS containing 20 mg/ml of BSA. The PBS/BSA mixture simulates the composition of the subcutaneous medium. […] Centrifugation at 4000 rpm is carried out in order to separate the precipitate from the supernatant. The insulin glargine is then assayed in the supernatant by RP-HPLC.

insulin glargine [3] = target: T1, insulin glargine; test: Precipitation of hydrophobized anionic molecule/insulin glargine composition in PBS/BSA mixture simulating the subcutaneous medium (examples B13, B14); assay type: physicochemical; conditions: 1 ml composition (10 mg/ml molecule, 100 IU/ml insulin glargine) added to 2 ml PBS containing 20 mg/ml BSA
Description: 1 ml of the insulin glargine solution of example B4 is added to 2 ml of a solution of PBS (phosphate buffered saline) containing 20 mg/ml of BSA (bovine serum albumin). The PBS/BSA mixture simulates the composition of the subcutaneous medium.
Centrifugation at 4000 rpm is carried out in order to separate the precipitate from the supernatant. The insulin glargine is then assayed in the supernatant by reverse-phase liquid chromatography (RP-HPLC).
1 ml of hydrophobized anionic molecule AA1/insulin glargine solution prepared in example B6(a) is added to 2 ml of a solution of PBS containing 20 mg/ml of BSA. The PBS/BSA mixture simulates the composition of the subcutaneous medium.
as §1
Solubilization and precipitation tests identical to those described in examples B6 and B14 were carried out with other hydrophobized anionic molecules at the same concentration of 10 mg/ml of hydrophobized anionic molecule for 100 IU/ml of insulin glargine solution.

[4] = background statement on marketed insulins; cited from earlier work
insulin glargine [5] = target: T1, insulin glargine; conditions: alone versus with the cyclodextrin, cited from earlier work
[6] = 7.5 mg/ml AA1, 75 IU/ml insulin glargine, 25 IU/ml prandial insulin, added to 2 ml PBS containing 20 mg/ml BSA
[7] = insulin glargine/insulin lispro 75/25 composition at pH 7, 1 ml added to 2 ml PBS containing 20 mg/ml BSA

T1 sequence (P01308 90-110 N110G limits assumed): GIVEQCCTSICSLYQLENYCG
T1 sequence (P01308 25-56 limits assumed, stated change not applied): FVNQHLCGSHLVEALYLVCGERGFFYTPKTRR

Substance | Insulin glargine precipitation (insulin glargine [3]) | Insulin glargine precipitation (insulin glargine [2]; [7]) | other results
Human insulin (ActRapid ®): commercial 100 IU/ml solution of human insulin (NOVO NORDISK) [reference compound] |  |  | Solubilization of insulin glargine/prandial insulin 75/25 [1]: Yes; Insulin glargine precipitation (insulin glargine [2]; [6]): Yes
Insulin aspart (NovoLog ®): commercial 100 IU/ml solution of insulin aspart, fast-acting insulin analog (NOVO NORDISK) [reference compound] |  |  | Solubilization of insulin glargine/prandial insulin 75/25 [1]: Yes; Insulin glargine precipitation (insulin glargine [2]; [6]): Yes
Insulin glulisine (Apidra ®): commercial 100 IU/ml solution of insulin glulisine, fast-acting insulin analog (SANOFI-AVENTIS) [reference compound] |  |  | Insulin glargine precipitation (insulin glargine [2]; [6]): Yes
Insulin lispro (Humalog ®): commercial 100 IU/ml solution of insulin lispro, fast-acting insulin analog (ELI LILLY) [reference compound] |  |  | Solubilization of insulin glargine/prandial insulin 75/25 [1]: Yes; Insulin glargine precipitation (insulin glargine [2]; [6]): Yes
Sodium Maltooctaosemethylcarboxylate Functionalized with Cholesteryl Leucinate [AA5] | Yes | Yes | 
Sodium Maltopentaosemethylcarboxylate Functionalized with Cholesteryl Leucinate [AA4] | Yes | Yes | 
Sodium Maltotriosemethylcarboxylate Functionalized with 3,7-dimethyl-octanoyl Phenylalaninate [AA8] | Yes | Yes | 
Sodium Maltotriosemethylcarboxylate Functionalized with (±)-α-tocopheryl Leucinate [AA9] | Yes | Yes | 
Sodium Maltotriosemethylcarboxylate Functionalized with Cholesteryl 2-aminoethylcarbamate [AA7] | Yes | Yes | 
Sodium Maltotriosemethylcarboxylate Functionalized with Cholesteryl Leucinate [AA1] | Yes |  | 
Sodium Maltotriosemethylcarboxylate Functionalized with Cholesteryl Leucinate [AA3] |  | Yes | 
Sodium Maltotriosemethylcarboxylate Functionalized with Dilauryl Aspartate [AA6] | Yes | Yes | 
insulin glargine |  |  | duration of action / hypoglycemic effect [4]: 24 h; solubility of insulin glargine (insulin glargine [5]; pH 7.4, phosphate buffer): 5 µM; solubility of insulin glargine (insulin glargine [5]; pH 9.5): 750 µM
sulfobutyl ether-β-cyclodextrin [SVE4-β-CYD] |  |  | solubility of insulin glargine (insulin glargine [5]; pH 7.4, phosphate buffer): 8 µM; solubility of insulin glargine (insulin glargine [5]; pH 9.5): 1250 µM
